pEC50: −log10 of the molar value. Several values for one entry are separate records, joined by “and”; a condition that tells them apart may be missing. Identical values can stand only once. Like-named read-outs stand apart in the source and are kept apart here.
Tests used:
mGluR2 [1] = biological target: mGluR2 (Mus musculus, UniProt Q14BI2, A548F); test: Live-cell FRET, azi-CRD (cysteine-rich domain) sensor in HEK293T cells; settings: for Normalized FRET response, Mean (azi-CRD agonist DRC): maximal responses normalized to 1mM glutamate
Sequence of mGluR2 (Mus musculus, UniProt Q14BI2, A548F) (Q14BI2 19-872 A548F): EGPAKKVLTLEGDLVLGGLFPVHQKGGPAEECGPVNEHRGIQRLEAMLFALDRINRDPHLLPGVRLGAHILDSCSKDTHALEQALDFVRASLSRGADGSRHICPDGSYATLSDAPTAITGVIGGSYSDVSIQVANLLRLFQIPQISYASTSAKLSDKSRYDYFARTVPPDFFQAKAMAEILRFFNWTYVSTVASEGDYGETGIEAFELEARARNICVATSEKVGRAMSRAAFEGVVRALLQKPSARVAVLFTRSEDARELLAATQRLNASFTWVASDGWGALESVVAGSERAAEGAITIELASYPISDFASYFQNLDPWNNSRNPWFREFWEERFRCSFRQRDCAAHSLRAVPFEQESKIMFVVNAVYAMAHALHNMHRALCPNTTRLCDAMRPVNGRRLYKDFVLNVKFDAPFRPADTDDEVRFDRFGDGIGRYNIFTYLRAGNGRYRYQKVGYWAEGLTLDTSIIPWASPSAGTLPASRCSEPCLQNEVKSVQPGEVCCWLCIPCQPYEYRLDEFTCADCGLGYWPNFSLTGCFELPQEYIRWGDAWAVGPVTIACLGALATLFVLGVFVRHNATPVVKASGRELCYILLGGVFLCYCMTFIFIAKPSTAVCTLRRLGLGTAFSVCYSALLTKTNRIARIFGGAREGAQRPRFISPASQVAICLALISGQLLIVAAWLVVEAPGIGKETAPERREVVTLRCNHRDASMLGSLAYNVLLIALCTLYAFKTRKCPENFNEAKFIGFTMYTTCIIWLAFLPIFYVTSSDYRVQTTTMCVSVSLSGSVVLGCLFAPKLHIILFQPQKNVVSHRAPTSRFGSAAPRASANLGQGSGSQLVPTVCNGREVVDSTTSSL

mGluR2 [2] = biological target: T1, mGluR2 (Mus musculus, UniProt Q14BI2); test: Live-cell FRET, SNAP-m2 (VFT domain) inter-subunit sensor in HEK293T cells; settings: for Normalized FRET response, Mean (SNAP-m2 agonist DRC): maximal responses normalized to 1mM glutamate;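 as to all read-outs here: apparent FRET efficiency from whole-membrane ROIs of single cells, corrected for donor bleed-through and background, ΔFRET as treatment minus pretreatment signal, recorded at room temperature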
T1 sequence (Q14BI2 19-872): as the sequence (Q14BI2 19-872 A548F) above, with F530A counted along it

mGluR2 [3] = biological target: T1, mGluR2; test: Functional calcium imaging, SNAP-mGluR2 (no FLAG-tag) with chimeric G protein Gqo5 in HEK293T cells; format: cell-based; design: Full length mGluR2 construct with an amber codon (TAG) mutation of amino acid A548 (azi-CRD) or N-terminal SNAP-tag (SNAP-mGluR2); host or cells: HEK293T; settings: for Intracellular Ca2+ response, Mean / Intracellular Ca2+ response: normalized to 1mM glutamate; for Intracellular Ca2+ response: single experiments
mGluR2 [4] = biological target: mGluR2 (Mus musculus, UniProt Q14BI2, INS715F); test: Live-cell FRET, azi-ECL2 (7TM domain, extracellular loop 2) sensor in HEK293T cells;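 also: Cy3/Cy5 click-labeled sensor, whole-membrane ROIs per cell, apparent FRET after bleed-through correction, ΔFRET as treatment minus pre-treatment signal, at room temperature, at least three biological replicates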
Sequence of mGluR2 (Mus musculus, UniProt Q14BI2, INS715F) (Q14BI2 with tags, fused parts or gaps INS715F): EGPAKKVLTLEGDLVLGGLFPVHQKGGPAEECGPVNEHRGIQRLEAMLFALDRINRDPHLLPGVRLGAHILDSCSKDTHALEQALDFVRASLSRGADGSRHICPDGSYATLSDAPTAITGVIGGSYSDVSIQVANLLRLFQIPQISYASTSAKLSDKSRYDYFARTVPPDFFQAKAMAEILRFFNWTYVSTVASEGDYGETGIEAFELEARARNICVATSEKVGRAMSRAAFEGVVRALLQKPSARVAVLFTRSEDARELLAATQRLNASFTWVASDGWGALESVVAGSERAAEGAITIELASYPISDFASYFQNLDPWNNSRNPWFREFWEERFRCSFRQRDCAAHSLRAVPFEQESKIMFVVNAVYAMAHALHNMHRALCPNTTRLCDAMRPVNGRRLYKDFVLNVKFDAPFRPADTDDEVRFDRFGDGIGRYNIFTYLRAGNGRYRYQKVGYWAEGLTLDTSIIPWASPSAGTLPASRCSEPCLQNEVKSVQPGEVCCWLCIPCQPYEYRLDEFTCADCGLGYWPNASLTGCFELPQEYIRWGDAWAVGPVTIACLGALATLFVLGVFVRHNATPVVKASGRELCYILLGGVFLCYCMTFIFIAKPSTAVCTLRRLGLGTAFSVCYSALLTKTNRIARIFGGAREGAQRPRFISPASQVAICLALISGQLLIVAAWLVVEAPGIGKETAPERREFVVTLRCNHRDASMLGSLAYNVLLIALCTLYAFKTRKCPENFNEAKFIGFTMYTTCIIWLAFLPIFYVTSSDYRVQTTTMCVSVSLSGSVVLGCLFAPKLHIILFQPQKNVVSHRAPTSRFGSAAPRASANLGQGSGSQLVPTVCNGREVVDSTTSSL

## N[C@@]1(C(=O)O)CN[C@@H](C(=O)O)C1 [(2R,4R)-APDC]
mGluR2 [1]; azi-CRD sensor, orthosteric agonist alone
  Hill slope: 1.10
mGluR2 [1]; azi-CRD sensor, (2R,4R)-APDC, individual values (N=13)
  Live-cell FRET max response normalized to 1mM glutamate: 1.025 and 1.046 and 1.029 and 1.018 and 1.041 and 0.9926 and 1.05 and 1.031 and 1.033 and 1.059 and 0.9828 and 0.9967 and 0.9994
mGluR2 [1]; azi-CRD, agonist alone (1 mM glutamate, 100 μM DCG-IV, 20 μM LY379268, 100 μM APDC), normalized to 1 mM glutamate
  Mean max response (normalized max ΔFRET): 1.02
mGluR2 [1]; azi-CRD, 100μM agonist, individual cells, normalized to 1mM glutamate
  Normalized Max ΔFRET: 105.882 and 99.2629 and 105.009 and 103.1 and 103.252 and 98.2759 and 99.67 and 99.937 and 102.531 and 104.556 and 102.893 and 101.835 and 104.136
mGluR2 [1]; azi-CRD, 100μM agonist, mean of cells, normalized to 1mM glutamate
  Normalized Max ΔFRET, Mean: 102.334
mGluR2 [1]; log[ligand] (M) -4
  Normalized FRET response, Mean (azi-CRD agonist DRC): 1.023
mGluR2 [1]; log[ligand] (M) -4.1549
  Normalized FRET response, Mean (azi-CRD agonist DRC): 1.003
mGluR2 [1]; log[ligand] (M) -4.52288
  Normalized FRET response, Mean (azi-CRD agonist DRC): 0.929
mGluR2 [1]; log[ligand] (M) -5
  Normalized FRET response, Mean (azi-CRD agonist DRC): 0.7432
mGluR2 [1]; log[ligand] (M) -5.39794
  Normalized FRET response, Mean (azi-CRD agonist DRC): 0.4945
mGluR2 [1]; log[ligand] (M) -5.82391
  Normalized FRET response, Mean (azi-CRD agonist DRC): 0.2779
mGluR2 [1]; log[ligand] (M) -6.52288
  Normalized FRET response, Mean (azi-CRD agonist DRC): 0.07413
mGluR2 [1]; log[ligand] (M) -7
  Normalized FRET response, Mean (azi-CRD agonist DRC): 0
mGluR2 [1]; read-out: Mean half-maximum effective concentration (EC50), azi-CRD sensor, orthosteric agonist alone
  pEC50: 5.19
mGluR2 [2]; SNAP-m2 (VFT), agonist alone (1 mM glutamate, 100 μM DCG-IV, 20 μM LY379268, 100 μM APDC), normalized to 1 mM glutamate
  Mean max response (normalized max ΔFRET): 0.96
mGluR2 [2]; SNAP-m2, 100μM agonist, individual cells, normalized to 1mM glutamate
  Normalized Max ΔFRET: 103.479 and 93.3266 and 93.5994 and 94.2433 and 93.7977 and 94.1947 and 102.7 and 100.974 and 101.936 and 101.611 and 93.0019 and 94.3775 and 90.2119 and 91.2088
mGluR2 [2]; SNAP-m2, 100μM agonist, mean of cells, normalized to 1mM glutamate
  Normalized Max ΔFRET, Mean: 96.333
mGluR2 [2]; SNAP-m2 sensor, orthosteric agonist alone
  Hill slope: –1.10
mGluR2 [2]; SNAP-m2 sensor, (2R,4R)-APDC, individual values (N=14)
  Live-cell FRET max response normalized to 1mM glutamate: 1.016 and 0.93 and 0.9438 and 0.9021 and 0.9121 and 0.9333 and 0.936 and 0.9424 and 0.938 and 0.9419 and 1.035 and 1.027 and 1.01 and 1.019
mGluR2 [2]; log[ligand] (M) -4
  Normalized FRET response, Mean (SNAP-m2 agonist DRC): -0.9633
mGluR2 [2]; log[ligand] (M) -4.52288
  Normalized FRET response, Mean (SNAP-m2 agonist DRC): -0.8729
mGluR2 [2]; log[ligand] (M) -5
  Normalized FRET response, Mean (SNAP-m2 agonist DRC): -0.684
mGluR2 [2]; log[ligand] (M) -5.39794
  Normalized FRET response, Mean (SNAP-m2 agonist DRC): -0.4889
mGluR2 [2]; log[ligand] (M) -6
  Normalized FRET response, Mean (SNAP-m2 agonist DRC): -0.1727
mGluR2 [2]; log[ligand] (M) -6.52288
  Normalized FRET response, Mean (SNAP-m2 agonist DRC): -0.05437
mGluR2 [2]; log[ligand] (M) -7
  Normalized FRET response, Mean (SNAP-m2 agonist DRC): 0
mGluR2 [2]; log[ligand] (M) -7.69897
  Normalized FRET response, Mean (SNAP-m2 agonist DRC): 0
mGluR2 [2]; read-out: Live-cell FRET titration EC50, SNAP-m2, agonist alone, individual experiments
  pEC50: 5.54 and 5.52 and 5.50 and 4.66 and 5.26 and 5.31
mGluR2 [2]; read-out: Mean half-maximum effective concentration (EC50), SNAP-m2 sensor, orthosteric agonist alone
  pEC50: 5.16
mGluR2 [3]; 100 μM DCG-IV, 10 μM LY379268, 300 μM APDC, normalized to 1 mM glutamate, single replicate
  Normalized Max Intracellular Ca2+ Response, individual experiments: 1.151 and 1.196 and 0.9567
mGluR2 [3]; 1 mM Glu, 100 μM DCG-IV, 10 μM LY379268, 300 μM APDC, normalized to 1 mM glutamate
  Normalized Max Intracellular Ca2+ Response, mean: 1.101
mGluR2 [3]; log[agonist] (M) -3.52288
  Intracellular Ca2+ response, Mean: 1.101
  Intracellular Ca2+ response: 1.101
mGluR2 [3]; log[agonist] (M) -3.82391
  Intracellular Ca2+ response, Mean: 1.121
  Intracellular Ca2+ response: 1.13 and 1.129 and 1.105
mGluR2 [3]; log[agonist] (M) -4
  Intracellular Ca2+ response, Mean: 1.103
  Intracellular Ca2+ response: 1.155 and 1.085 and 1.068
mGluR2 [3]; log[agonist] (M) -4.52288
  Intracellular Ca2+ response, Mean: 0.9624
  Intracellular Ca2+ response: 0.9835 and 0.9555 and 0.9483
mGluR2 [3]; log[agonist] (M) -5
  Intracellular Ca2+ response, Mean: 0.7274
  Intracellular Ca2+ response: 0.6253 and 0.7115 and 0.8453
mGluR2 [3]; log[agonist] (M) -5.39794
  Intracellular Ca2+ response, Mean: 0.3932
  Intracellular Ca2+ response: 0.2825 and 0.3895 and 0.5075
mGluR2 [3]; log[agonist] (M) -6
  Intracellular Ca2+ response, Mean: 0
  Intracellular Ca2+ response: 0
mGluR2 [3]; log[agonist] (M) -6.52288
  Intracellular Ca2+ response, Mean: 0
  Intracellular Ca2+ response: 0
mGluR2 [3]; log[agonist] (M) -7
  Intracellular Ca2+ response, Mean: 0
  Intracellular Ca2+ response: 0
mGluR2 [3]; log[agonist] (M) -7.69897
  Intracellular Ca2+ response, Mean: 0
  Intracellular Ca2+ response: 0
mGluR2 [3]; log[agonist] (M) -8
  Intracellular Ca2+ response, Mean: 0
  Intracellular Ca2+ response: 0
mGluR2 [3]; one value per experiment, read-out: EC50, intracellular Ca2+ response
  pEC50: 5.35 and 5.07 and 5.18
mGluR2 [4]; azi-ECL2, agonist alone (1 mM glutamate, 100 μM DCG-IV, 20 μM LY379268, 100 μM APDC), normalized to 1 mM glutamate
  Mean max response (normalized max ΔFRET): 1.05
mGluR2 [4]; azi-ECL2, log[agonist] (M) -4, normalized to 1 mM glutamate
  Normalized ΔFRET response, Mean (agonist DRC): 1.046
mGluR2 [4]; azi-ECL2, log[agonist] (M) -4.1549, normalized to 1 mM glutamate
  Normalized ΔFRET response, Mean (agonist DRC): 1.0205
mGluR2 [4]; azi-ECL2, log[agonist] (M) -4.52288, normalized to 1 mM glutamate
  Normalized ΔFRET response, Mean (agonist DRC): 0.9248
mGluR2 [4]; azi-ECL2, log[agonist] (M) -5, normalized to 1 mM glutamate
  Normalized ΔFRET response, Mean (agonist DRC): 0.7108
mGluR2 [4]; azi-ECL2, log[agonist] (M) -5.39794, normalized to 1 mM glutamate
  Normalized ΔFRET response, Mean (agonist DRC): 0.4486
mGluR2 [4]; azi-ECL2, log[agonist] (M) -5.82391, normalized to 1 mM glutamate
  Normalized ΔFRET response, Mean (agonist DRC): 0.2358
mGluR2 [4]; azi-ECL2, log[agonist] (M) -6.52288, normalized to 1 mM glutamate
  Normalized ΔFRET response, Mean (agonist DRC): 0.04024
mGluR2 [4]; azi-ECL2, log[agonist] (M) -7, normalized to 1 mM glutamate
  Normalized ΔFRET response, Mean (agonist DRC): 0
mGluR2 [4]; azi-ECL2, 100μM agonist, mean of cells, normalized to 1mM glutamate
  Normalized Max ΔFRET, Mean: 104.617
mGluR2 [4]; azi-ECL2 sensor, orthosteric agonist alone
  Hill slope: 1.14
mGluR2 [4]; read-out: EC50, live-cell FRET titration, azi-ECL2 sensor, (2R,4R)-APDC, individual cell values (N=13)
  pEC50: 5.05 and 4.96 and 4.72 and 5.36 and 5.59 and 5.67 and 5.20 and 5.21 and 5.50 and 5.33 and 5.39 and 5.26
mGluR2 [4]; read-out: Mean half-maximum effective concentration (EC50), azi-ECL2 sensor, orthosteric agonist alone
  pEC50: 5.17

Source: publication PMC9299836 (eLife, 2022)
